For one compound, Kd results are on record in publication PMC6534296, “Structural analysis of Cytochrome P450 BM3 mutant M11 in complex with dithiothreitol” (PLoS ONE, 2019).

The target in the assay is T1, Cytochrome P450 BM3 (CYP102A1) mutant M11 (Priestia megaterium, UniProt P14779, E144G/E268V/E65G/F82I/F88V/G416S/H286Y/L189Q/R48L/Y199C).
T1 construct: heme domain (stop codon introduced after residue 473)
In words: X-ray crystal structure ([…] Å) and UV/Vis difference spectral titration. The format is binding.

T1 sequence (P14779 1-474 R48L/E65G/F82I/F88V/E144G/L189Q/Y199C/E268V/H286Y/G416S): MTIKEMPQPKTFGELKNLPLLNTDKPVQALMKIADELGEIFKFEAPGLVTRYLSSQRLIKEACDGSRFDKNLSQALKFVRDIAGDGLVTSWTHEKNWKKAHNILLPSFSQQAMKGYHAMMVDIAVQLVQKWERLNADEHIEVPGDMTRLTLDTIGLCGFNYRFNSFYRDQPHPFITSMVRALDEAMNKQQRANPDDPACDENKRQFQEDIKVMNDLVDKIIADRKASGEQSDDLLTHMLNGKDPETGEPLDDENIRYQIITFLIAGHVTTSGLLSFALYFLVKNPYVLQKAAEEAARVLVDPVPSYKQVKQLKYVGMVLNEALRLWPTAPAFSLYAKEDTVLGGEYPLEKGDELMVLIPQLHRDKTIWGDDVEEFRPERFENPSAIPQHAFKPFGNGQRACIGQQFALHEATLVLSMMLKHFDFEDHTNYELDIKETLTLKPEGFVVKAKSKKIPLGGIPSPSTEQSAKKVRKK

For orientation: Kd means the concentration at which binding is half-saturated. In turn, `O[C@@H](CS)[C@@H](O)CS` (racemic) [DTT, dithiothreitol] had a Kd of 56.8 ± 1.3 µM.
